Assay results as given in patent US11919902B2, “Aryl-bipyridine amine derivatives as phosphatidylinositol phosphate kinase inhibitors” (HiberCell, Inc., priority 2017, dated 2024).
pIC50: −log10 of the molar value.

How the values were obtained:
[1] = molecular target: T1, PIP4K2A (full length protein, SignalChem) (Homo sapiens, UniProt P48426); assay: Kinase Assay PIP4K2 A (Sprint); ADP-Glo biochemical assay; conditions: Table 2; compounds listed under IC50 range headings
T1 construct: 4 nM PIP4K2A (full length protein, SignalChem); purchased SignalChem
T1 sequence (P48426 1-406): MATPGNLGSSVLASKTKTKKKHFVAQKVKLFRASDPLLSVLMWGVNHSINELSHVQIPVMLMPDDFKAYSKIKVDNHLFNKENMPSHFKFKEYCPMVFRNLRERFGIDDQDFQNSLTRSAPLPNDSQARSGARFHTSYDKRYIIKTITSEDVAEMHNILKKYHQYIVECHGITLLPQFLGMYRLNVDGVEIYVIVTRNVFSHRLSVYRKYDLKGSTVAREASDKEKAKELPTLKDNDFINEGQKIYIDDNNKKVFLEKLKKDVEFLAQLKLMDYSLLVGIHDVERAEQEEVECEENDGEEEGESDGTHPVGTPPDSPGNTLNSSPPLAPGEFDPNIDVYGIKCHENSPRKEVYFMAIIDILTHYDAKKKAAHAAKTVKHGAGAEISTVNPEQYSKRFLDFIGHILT
Method in brief: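 Compounds (10-point, 3-fold dilutions) were pre-incubated 15 min at RT with an enzyme/substrate mix of 4 nM full-length PIP4K2A and 100 μM PI(5)P diC8 in 20 mM MOPS pH 7.2, 25 mM MgCl2, 0.005% Tween 20. A 60 μM ATP solution was added, reaction 1 h RT; ADP read by ADP-Glo luminescence, IC50 fitted from % inhibition vs DMSO.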

[2] = molecular target: T2, GST tagged PIP4KtypeIIB (Homo sapiens, UniProt P78356); assay: Trans-FI P kinase assay PIP4K2B (PIP4KtypeIIB inhibition assay); type: biochemical; conditions: Table 4; compounds listed under IC50 range headings; 100 uM GTP, 5 nM PIP4KIIB; read-out: Trans-FI P kinase assays: PIP4K2B IC50
T2 construct: made in house; host or cells: E. coli
T2 sequence (P78356 1-416): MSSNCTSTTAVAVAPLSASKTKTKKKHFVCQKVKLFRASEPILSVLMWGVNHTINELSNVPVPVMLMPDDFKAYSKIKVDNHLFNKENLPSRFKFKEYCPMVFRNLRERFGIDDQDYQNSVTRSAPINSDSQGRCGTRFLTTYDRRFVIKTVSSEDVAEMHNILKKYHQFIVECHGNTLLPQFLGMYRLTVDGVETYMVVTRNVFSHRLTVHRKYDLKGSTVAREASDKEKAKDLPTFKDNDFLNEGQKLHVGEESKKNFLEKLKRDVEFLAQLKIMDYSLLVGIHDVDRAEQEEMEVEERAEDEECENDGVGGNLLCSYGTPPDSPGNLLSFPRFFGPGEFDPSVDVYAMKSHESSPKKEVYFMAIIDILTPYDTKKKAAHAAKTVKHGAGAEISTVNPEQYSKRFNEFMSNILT
Method in brief: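 Purified GST-PIP4KIIB (5 nM final), 1 h preincubation with compound at 27 C, then 2 h reaction with 100 uM GTP and 80 uM PI5P plus DOPE carrier lipid in pH 7.3 HEPES/MgCl2/Triton buffer with 5% DMSO. GDP read by Transcreener FI fluorescence against a calibration curve; IC50 from % no-inhibitor activity vs log concentration.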

[3] = molecular target: T3, GST tagged PIP4KtypeIIA (Homo sapiens, UniProt P48426); assay: ADP-glo kinase assay PIP4K 2A (PIP4KtypeIIA inhibition assay); type: biochemical; conditions: Table 3; compounds listed under IC50 range headings; 10 uM ATP, 0.5 nM PIP4KIIA
T3 construct: made in house; host or cells: E. coli
T3 sequence (P48426 1-406): T1 sequence (P48426 1-406)
Method in brief: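 E. coli-expressed GST-PIP4KtypeIIA (0.5 nM final) was preincubated 1 h at 27 °C with compound (up to 4.8 μM, 5% DMSO) in PI5P/DOPE lipid in 50 mM HEPES pH 7.3 with 10 mM MgCl2. The reaction was started with 10 μM ATP (final) and run 1 h. ADP was read by ADP-Glo luminescence via a calibration curve, and IC50 was taken from % residual activity.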

Row | pIC50 [1] | pIC50 [2] | pIC50 [3] | SMILES
1 | 7.00 to 8.30 | 6.00 to 7.00 | 6.00 to 7.00 | O=C1CCCN1c1ccc(-c2cncc(-c3cn(Cc4ccccc4)c(=O)c4[nH]ncc34)c2)cc1 [Example 67, 6-benzyl-4-(5-(4-(2-oxopyrrolidin-1-yl)phenyl)pyridin-3-yl)-1,6-dihydro-7H-pyrazolo[3,4-c]pyridin-7-one]
2 | 7.00 to 8.30 | 7.00 to 8.00 | 7.00 to 8.00 | CC(C)Cn1cc(-c2cncc(-c3ccc(N4CCCC4=O)cc3)c2)c2cn[nH]c2c1=O [Example 68, 6-isobutyl-4-(5-(4-(2-oxopyrrolidin-1-yl)phenyl)pyridin-3-yl)-1,6-dihydro-7H-pyrazolo[3,4-c]pyridin-7-one]
3 | 7.00 to 8.30 | 6.00 to 7.00 | 5.60 to 6.00 | O=C1CCCN1c1ccc(-c2cncc(-c3cn(CC4CCOCC4)c(=O)c4[nH]ncc34)c2)cc1 [Example 69, 4-(5-(4-(2-oxopyrrolidin-1-yl)phenyl)pyridin-3-yl)-6-((tetrahydro-2H-pyran-4-yl)methyl)-1,6-dihydro-7H-pyrazolo[3,4-c]pyridin-7-one]
4 | 7.00 to 8.30 | 6.00 to 7.00 | 6.00 to 7.00 | Cn1ncc2c(-c3cncc(-c4ccc(N5CCCC5=O)cc4)c3)cn(CC3CCOCC3)c(=O)c21 [Example 70, 1-methyl-4-(5-(4-(2-oxopyrrolidin-1-yl)phenyl)pyridin-3-yl)-6-((tetrahydro-2H-pyran-4-yl)methyl)-1,6-dihydro-7H-pyrazolo[3,4-c]pyridin-7-one]
5 | 7.00 to 8.30 | 7.00 to 8.00 | 6.00 to 7.00 | CNC(=O)c1cnc2[nH]cc(-c3cncc(-c4ccc(N5CCCC5=O)cc4)c3)c2c1 [Example 71, N-methyl-3-(5-(4-(2-oxopyrrolidin-1-yl)phenyl)pyridin-3-yl)-1H-pyrrolo[2,3-b]pyridine-5-carboxamide]
6 | 7.00 to 8.30 | 6.00 to 7.00 | 6.00 to 7.00 | CN(C)C(=O)c1cnc2[nH]cc(-c3cncc(-c4ccc(N5CCCC5=O)cc4)c3)c2c1 [Example 72, N,N-dimethyl-3-(5-(4-(2-oxopyrrolidin-1-yl)phenyl)pyridin-3-yl)-1H-pyrrolo[2,3-b]pyridine-5-carboxamide]
7 | 7.00 to 8.30 | 6.00 to 7.00 | 6.00 to 7.00 | O=C1CCCN1c1ccc(-c2cncc(-c3c[nH]c(=O)c4[nH]ncc34)c2)cc1 [Example 74, 4-(5-(4-(2-oxopyrrolidin-1-yl)phenyl)pyridin-3-yl)-1,6-dihydro-7H-pyrazolo[3,4-c]pyridin-7-one]
8 | 6.00 to 7.00 | 5.60 to 6.00 | 5.30 to 5.60 | CN1C(=O)Cc2c(-c3cncc(-c4ccc(N5CCCC5=O)cc4)c3)ccnc21 [Example 76, 1-methyl-4-(5-(4-(2-oxopyrrolidin-1-yl)phenyl)pyridin-3-yl)-1,3-dihydro-2H-pyrrolo[2,3-b]pyridin-2-one]
9 | 7.00 to 8.30 | 6.00 to 7.00 | 6.00 to 7.00 | Cn1cc(-c2cncc(-c3ccc(N4CCCC4=O)cc3)c2)c2cc(N3CCCC3=O)cnc21 [Example 77, 1-(1-methyl-3-(5-(4-(2-oxopyrrolidin-1-yl)phenyl)pyridin-3-yl)-1H-pyrrolo[2,3-b]pyridin-5-yl)pyrrolidin-2-one]
10 | 7.00 to 8.30 | 6.00 to 7.00 | 6.00 to 7.00 | O=C1NCc2c(-c3cncc(-c4ccc(N5CCCC5=O)cc4)c3)ccnc21 [Example 78, 4-[5-[4-(2-Oxopyrrolidin-1-yl)phenyl]-3-pyridyl]-5,6-dihydropyrrolo[3,4-b]pyridin-7-one]
11 | 7.00 to 8.30 | 7.00 to 8.00 | 7.00 to 8.00 | O=C(NCC1CC1)c1cc2c(-c3cncc(-c4ccc(N5CCCC5=O)cc4)c3)ccnc2o1 [Example 79, N-(cyclopropylmethyl)-4-(5-(4-(2-oxopyrrolidin-1-yl)phenyl)pyridin-3-yl)furo[2,3-b]pyridine-2-carboxamide]
12 | 7.00 to 8.30 | 7.00 to 8.00 | 6.00 to 7.00 | COCCNC(=O)c1cc2c(-c3cncc(-c4ccc(N5CCCC5=O)cc4)c3)ccnc2o1 [Example 80, N-(2-methoxyethyl)-4-(5-(4-(2-oxopyrrolidin-1-yl)phenyl)pyridin-3-yl)furo[2,3-b]pyridine-2-carboxamide]
13 | 6.00 to 7.00 | 6.00 to 7.00 | 6.00 to 7.00 | Nc1ncc(-c2ccncc2)cc1-c1ccc(N2CCCC2=O)cc1 [Example 84, 1-(4-(6-amino-[3,4′-bipyridin]-5-yl)phenyl)pyrrolidin-2-one]
14 | 8.30 to 9.00 | 8.00 to 9.00 | 7.00 to 8.00 | CNC(=O)c1cc2c(-c3cnc(N)c(-c4ccc(N5CCCC5=O)cc4)c3)ccnc2o1 [Example 85, 4-(6-amino-5-(4-(2-oxopyrrolidin-1-yl)phenyl)pyridin-3-yl)-N-methylfuro[2,3-b]pyridine-2-carboxamide]
15 | 7.00 to 8.30 | 6.00 to 7.00 | 6.00 to 7.00 | Cn1cc(-c2cnc(N)c(-c3ccc(N4CCCC4=O)cc3)c2)c2cccnc21 [Example 87, 1-(4-(2-amino-5-(1-methyl-1H-pyrrolo[2,3-b]pyridin-3-yl)pyridin-3-yl)phenyl)pyrrolidin-2-one]
16 | 7.00 to 8.30 | 8.00 to 9.00 | 7.00 to 8.00 | Nc1ncc(-c2ccnc3c2cc2n3CCN(CC3CC3)C2=O)cc1-c1ccc(N2CCCC2=O)cc1 [Example 88, 4-(6-amino-5-(4-(2-oxopyrrolidin-1-yl)phenyl)pyridin-3-yl)-7-(cyclopropylmethyl)-8,9-dihydropyrido[3′,2′:4,5]pyrrolo[1,2-a]pyrazin-6(7H)-one]
17 | 8.30 to 9.00 | 8.00 to 9.00 | 8.00 to 9.00 | Nc1ncc(-c2ccnc3oc(C(=O)NCC4CC4)cc23)cc1-c1ccc(N2CCCC2=O)cc1 [Example 89, 4-(6-amino-5-(4-(2-oxopyrrolidin-1-yl)phenyl)pyridin-3-yl)-N-(cyclopropylmethyl)furo[2,3-b]pyridine-2-carboxamide]
18 | 7.00 to 8.30 | 8.00 to 9.00 | 7.00 to 8.00 | COCCNC(=O)c1cc2c(-c3cnc(N)c(-c4ccc(N5CCCC5=O)cc4)c3)ccnc2o1 [Example 90, 4-(6-amino-5-(4-(2-oxopyrrolidin-1-yl)phenyl)pyridin-3-yl)-N-(2-methoxyethyl)furo[2,3-b]pyridine-2-carboxamide]
19 | 7.00 to 8.30 | 7.00 to 8.00 | 6.00 to 7.00 | Cn1cc(-c2cnc(N)c(-c3ccc(N4CCCC4=O)cc3)c2)c2cc(N3CCCC3=O)cnc21 [Example 91, 1-(4-(2-amino-5-(1-methyl-5-(2-oxopyrrolidin-1-yl)-1H-pyrrolo[2,3-b]pyridin-3-yl)pyridin-3-yl)phenyl)pyrrolidin-2-one]
20 | 7.00 to 8.30 | 7.00 to 8.00 | 7.00 to 8.00 | Cn1ncc2c(-c3cnc(N)c(-c4ccc(N5CCCC5=O)cc4)c3)cn(CC3CCOCC3)c(=O)c21 [Example 92, 4-(6-amino-5-(4-(2-oxopyrrolidin-1-yl)phenyl)pyridin-3-yl)-1-methyl-6-((tetrahydro-2H-pyran-4-yl)methyl)-1,6-dihydro-7H-pyrazolo[3,4-c]pyridin-7-one]
21 | 5.60 to 6.00 | 5.60 to 6.00 | 5.30 to 5.60 | CN(C)C(=O)c1ccc(-c2cc(-c3ccnc4cc(C#N)ccc34)cnc2N)nc1 [Example 109, 2′-amino-5′-(7-cyanoquinolin-4-yl)-N,N-dimethyl-[2,3′-bipyridine]-5-carboxamide]
